In EP1270000A2, “Benzoic acid substituted benzopyrans for the treatment of atherosclerosis” (Pfizer Products Inc., priority 2001, dated 2003):

Experiments:
[1] = system: LDLr^-/-; assay: Lesion analysis (Oil red O, aortic sinus and valve) in atherosclerotic mice; type: in vivo; design: Lesion size: unit not given here
Excerpt: (§1) Mouse line derivation. Genetically modified apolipoprotein E-deficient (ApoE^-/-), low density lipoprotein (LDL) receptor-deficient (LDLr^-/-), and monocyte chemoattractant protein-1-deficient (MCP-1^-/-) mice used in the present study have been previously described and characterized [See Rutledge, B.J. et. al., J. Immunol., 1995;155:4838-4843; and Nakashima Y, et. al., Arterioscler. Thromb., 1994;14(1):133-140]. To obtain mice homozygous for both the apoE and MCP-1 (ScyA2) null alleles, male ApoE^-/- mice on a C57B/6 background (C57E^- ^/-) were mated with heterozygous female MCP-1^-/+ mice on a C57B/6 background. The resulting ApoE^-/- x MCP-1^-/+ progeny were identified by Southern blot analysis and inbred to produce ApoE^-/- x MCP-1^-/- (C57E^-/- x MCP-1 ^-/-) and control ApoE ^-/- x MCP-1^+/+ (C57E-/-) mice. ApoE^-/- mice on the mixed genetic background 1290la x C57B/6 (129E^-/-) were bred in-house and derived from brother and sister matings. All mice were weaned at 21 days, maintained on a 12 hour light/dark cycle and fed either a chow or a Western-type diet [See, Bourassa, P.K., et. al., Proc Natl Acad. Sci. USA, 1996;93:10022-10027].
(§2) Administration of Compound. Compound of formula I, preferably (3S, 4R)-7-(2-carboxy-5-trifluoromethylphenyl)-4-hydroxy-3-benzyl-3,4-dihydro-2H-1-benzopyran, was evaluated for its effects on lesion development in age-matched groups of mice (15 to 30 weeks of age at time of sacrifice) using a 35 day treatment protocol. […]
Lesion Analysis. […] Each section of the aortic valve was evaluated for Oil red O staining area by capturing images directly from a RGB camera attached to a Leitz Laborlux S (Leica) light microscope for display on a Trinitron RGB monitor. […] Results are expressed as the average lesion size per section or as the percent of the total cross sectional vessel wall stained with Oil red O. For each animal, the average lesion area of 12-16 sections was determined and data are expressed as lesion size or mean percent lesion area ±S.D. […]

[2] = system: C57E^-/-; assay: as above; type: in vivo; conditions: 100 mg/kg orally 35 days, chow diet, mean ±SD
Excerpt: as §1
as §2, with “protocol. Subgroups of mice were treated with (3S, 4R)-7-(2-carboxy-5-trifluoromethylphenyl)-4-hydroxy-3-benzyl-3,4-dihydro-2H-1-benzopyran for shorter times (7-14 days) for evaluation of acute changes in tissue gene expression as noted in the table and figure legends.” for “protocol.”
Lesion Analysis. […] Each section of the aortic valve was evaluated for Oil red O staining area by capturing images directly from a RGB camera attached to a Leitz Laborlux S (Leica) light microscope for display on a Trinitron RGB monitor. […] Results are expressed as the average lesion size per section or as the percent of the total cross sectional vessel wall stained with Oil red O. For each animal, the average lesion area of 12-16 sections was determined and data are expressed as lesion size or mean percent lesion area ±S.D.
Referring to Table 2, Apolipoprotein E-deficient mice on a mixed 129Io/B6 (129E^-/-) or a C57BI/6 background (C57E^-/-), mice homozygous low density lipoprotein receptor deficient mice LDLR^-/- mice were treated for 35 days orally with (3S, 4R)-7-(2-carboxy-5-trifluoromethylphenyl)-4-hydroxy-3-benzyl-2H-1-benzopyran) at doses indicated. […] The mean percent lesion area in 10 µ sections of the aortic sinus and valve region was calculated following oil red O staining, Values are reported as means ±SD. The term "ND" is defined as Not Determined. […]

[3] = system: MCP-1 ^-/- X ApoE^-/-; assay: Lesion analysis (Oil red O, aortic sinus and valve) in MCP-1 deficient mice; type: in vivo; conditions: M, mean ±SD
Excerpt: as §1
(§3) Administration of Compound. Compound of formula I, preferably (3S, 4R)-7-(2-carboxy-5-trifluoromethylphenyl)-4-hydroxy-3-benzyl-3,4-dihydro-2H-1-benzopyran, was evaluated for its effects on lesion development in age-matched groups of mice (15 to 30 weeks of age at time of sacrifice) using a 35 day treatment protocol. Subgroups of mice were treated with (3S, 4R)-7-(2-carboxy-5-trifluoromethylphenyl)-4-hydroxy-3-benzyl-3,4-dihydro-2H-1-benzopyran for shorter times (7-14 days) for evaluation of acute changes in tissue gene expression as noted in the table and figure legends. In all study groups, the compound was administered by oral gavage once daily in a vehicle comprised of 0.6% Tween 80 + 0.25% methylcellulose in PBS. Mice received either vehicle alone, 30mg/kg/day, or 100mg/kg/day of compound of formula I.
(§4) Lesion Analysis. To determine cross-sectional lesion area, hearts were perfusion-fixed in 4% paraformaldehyde, infiltrated with 30% gum sucrose for 24 hours at 4°C, and embedded in OCT compound and sectioned 10µm, -18°C, as previously described [See Borgeat P., et.al., J. Biol. Chem., 1979;254:2643-2646] and the sections were stained with Oil red O (Polyscientific, Bay Shore NY) and counterstained with Gill III hematoxylin (Sigma, St. Louis MO). Each section of the aortic valve was evaluated for Oil red O staining area by capturing images directly from a RGB camera attached to a Leitz Laborlux S (Leica) light microscope for display on a Trinitron RGB monitor. Image analysis was performed using ImagePro 3.1' software as described previously [See Bourassa, P.K., et. al., Proc Natl. Acad. Sci. USA, 1996;93:10022-10027]. Results are expressed as the average lesion size per section or as the percent of the total cross sectional vessel wall stained with Oil red O. For each animal, the average lesion area of 12-16 sections was determined and data are expressed as lesion size or mean percent lesion area ±S.D.
Referring to Table 4, mice homozygous for the null alleles of Monocyte chemoattractant protein-1 (MCP-1^-/-) and apolipoprotein E (ApoE^-/-) (MCP-1 ^-/- X ApoE^-/-) on a C57bl/6 background (C57E^-/-) mice were treated for 35 days orally with (3S, 4R)-7-(2-carboxy-5-trifluoromethylphenyl)-4-hydroxy-3-benzyl-2H-1-benzopyran) at doses indicated 0, 30 or 100mg/kg. The mean percent lesion area in 10 µ sections of the aortic sinus and valve region was calculated following oil red O staining, Values are reported as means ±SD. The term "ND" is defined as Not Determined. The term "TPC" is defined as Total Plasma Cholesterol. The term "TG" is defined as Triglycerides. The term "sinus" is defined as a region of the aortic valve; moving up from the base of the heart; which begins at the first appearance of the aortic valve cusps, dividing the lumen into three distinct regions. […]

[4] = system: CD11b; assay: Immunohistochemical staining of macrophages (CD11b) in atherosclerotic lesions; type: in vivo, mice; conditions: 30 mg/kg/d orally for 35 days, mean ± SD, N=8/group
Method: as §3
Immunohistochemical Staining of Macrophages. Serial paraformaldehyde fixed, OCT embedded sections of aortic valves were immunostained for macrophages using rat monoclonal antibodies (IgG2b) against MOMA-2 (BioSource) and CD11b (Pharmingen). Endogenous biotin and peroxidase activity were blocked by incubating each section with an avidin/biotin solution (Vector Laboratories), and 0.3% H2O2 in 1% bovine serum, respectively. […] Results are expressed as the percent of the total cross-sectional vessel wall area (normal + diseased area/ section, excluding the lumen) stained with DAB. […]

[5] = system: 129E^-/-; assay: Lesion analysis (Oil red O, aortic sinus and valve) in atherosclerotic mice; type: in vivo; design: Lesion size: unit not given here; conditions: chow diet; for Sinus (% lesion) / Valve (%lesion): 129E^-/-, F, mean ±SD
Excerpt: as §1
as §3, with “Mice received either vehicle alone, 30mg/kg/day, or 100mg/kg/day of compound of formula I.” left out
as §4
Referring to Table 2, Apolipoprotein E-deficient mice on a mixed 129Io/B6 (129E^-/-) or a C57BI/6 background (C57E^-/-), mice homozygous low density lipoprotein receptor deficient mice LDLR^-/- mice were treated for 35 days orally with (3S, 4R)-7-(2-carboxy-5-trifluoromethylphenyl)-4-hydroxy-3-benzyl-2H-1-benzopyran) at doses indicated. LDLR^-/- was fed a Western diet; all other strains were maintained on chow diet. The mean percent lesion area in 10 µ sections of the aortic sinus and valve region was calculated following oil red O staining, Values are reported as means ±SD. The term "ND" is defined as Not Determined. The term "TPC" is defined as Total Plasma Cholesterol. The term "TG" is defined as Triglycerides. The term "sinus" is defined as a region of the aortic válve; moving up from the base of the heart; which begins at the first appearance of the aortic valve cusps, dividing the lumen into three distinct regions. In the sinus, the aortic wall is bulging and irregular. […]

[6] = Body weight of treated mice; type: in vivo
Method: as §3, with “Mice received either vehicle alone, 30mg/kg/day, or 100mg/kg/day of compound of formula I.” left out

[7] = LDLr^-/-, M, 18 wks, 30 mg/kg orally 35 days, Western diet, mean ±SD
[8] = 15 wks, 30 mg/kg orally 35 days
[9] = 15 wks, 100 mg/kg orally 35 days
[10] = 30 wks, 30 mg/kg orally 35 days
[11] = 30 wks, 100 mg/kg orally 35 days
[12] = 15 wks, 50 mg/kg orally 35 days
[13] = 20 wks, 30 mg/kg orally 35 days
[14] = 24 wks, 100 mg/kg orally 35 days

O=C(O)c1ccc(C(F)(F)F)cc1-c1ccc2c(c1)OC[C@H](Cc1ccccc1)[C@H]2O [(3S, 4R)-7-(2-carboxy-5-trifluoromethylphenyl)-4-hydroxy-3-benzyl-3,4-dihydro-2H-1-benzopyran]
Sinus (% lesion) [1, 7]: 5.6±2 %
Valve (%lesion) [1, 7]: 6.5±3 %
Lesion size ([1]; male LDLr^-/-, Western-type diet, 30 mg/kg/d orally for 35 days, mean ± SD, N=8/group): 19955±7278
Sinus (% lesion) ([2]; F, 22 wks): 38.8±3%
Valve (%lesion) ([2]; F, 22 wks): 39±2%
Sinus (% lesion) ([2]; M, 16 wks): 10.4±3 %
Valve (%lesion) ([2]; M, 16 wks): 7.8±2 %
Sinus (% lesion) [3, 8]: 13.3±2%
Valve (%lesion) [3, 8]: 12.8±2%
Sinus (% lesion) [3, 9]: 9.8±1%
Valve (%lesion) [3, 9]: 9.7±1%
Sinus (% lesion) [3, 10]: 41.4±5%
Valve (%lesion) [3, 10]: 54.2±7%
Sinus (% lesion) [3, 11]: 43.1±5%
Valve (%lesion) [3, 11]: 50.0±4%
% CD11b (mean percent of the lesion staining positively for CD11b) ([4]; female 129E^-/-, chow diet): 3.5±1.0 %
% CD11b (mean percent of the lesion staining positively for CD11b) ([4]; male LDLr^-/-, Western-type diet): 3.5±2.5 %
Sinus (% lesion) [5, 8]: 19.6±2%
Valve (%lesion) [5, 8]: 21.6±2%
Sinus (% lesion) [5, 12]: 14.7±2 %
Valve (%lesion) [5, 12]: 16.3±2 %
Sinus (% lesion) [5, 9]: 7.9±1 %
Valve (%lesion) [5, 9]: 8.0±2 %
Sinus (% lesion) [5, 13]: 24.4±3%
Valve (%lesion) [5, 13]: 25.9±3 %
Sinus (% lesion) [5, 14]: 30.0±1%
Valve (%lesion) [5, 14]: 34.0±1%
Lesion size ([5]; female 129E^-/-, 30 mg/kg/d orally for 35 days, mean ± SD, N=8/group): 10650±12133
Body wt(gm) ([6]; 129E^-/-, F, 15 wks, 30 mg/kg orally 35 days, chow diet): 26±2 gm
Body wt(gm) ([6]; 129E^-/-, F, 15 wks, 50 mg/kg orally 35 days, chow diet): 25±2 gm
Body wt(gm) ([6]; 129E^-/-, F, 15 wks, 100 mg/kg orally 35 days, chow diet): 25±1 gm
Body wt(gm) ([6]; 129E^-/-, F, 20 wks, 30 mg/kg orally 35 days, chow diet): 29±1 gm
Body wt(gm) ([6]; 129E^-/-, F, 24 wks, 100 mg/kg orally 35 days, chow diet): 31±1 gm
Body wt(gm) ([6]; C57E^-/-, F, 22 wks, 100 mg/kg orally 35 days, chow diet): 30 gm
Body wt(gm) ([6]; C57E^-/-, M, 16 wks, 100 mg/kg orally 35 days, chow diet): 29±1 gm
Body wt(gm) ([6]; LDLr^-/-, M, 18 wks, 30 mg/kg orally 35 days, Western diet): 31±2 gm
Body wt(gm) ([6]; MCP-1 ^-/- X ApoE^-/-, M, 15 wks, 30 mg/kg orally 35 days): 29±1 gm
Body wt(gm) ([6]; MCP-1 ^-/- X ApoE^-/-, M, 15 wks, 100 mg/kg orally 35 days): 29±1 gm
Body wt(gm) ([6]; MCP-1 ^-/- X ApoE^-/-, M, 30 wks, 30 mg/kg orally 35 days): 31±1 gm
Body wt(gm) ([6]; MCP-1 ^-/- X ApoE^-/-, M, 30 wks, 100 mg/kg orally 35 days): 26±1 gm
